From patent US20140262287A1, “ENVIRONMENTALLY FRIENDLY QUATERNARY SALTS OF AMINES AND THEIR USE AS TEMPORARY AND/OR PERMANENT CLAY STABILIZERS AND METHODS FOR MAKING AND USING SAME” (CLEARWATER INTERNATIONAL, LLC, priority 2013, published 2014)

How the values were obtained:
[1] = Clay stabilization test (water separation from 1% clay solution); conditions: dosage 0.5 (wt. %/100 mL); 60 minutes; 100 mL of 1% clay solution; (Top)/(Middle) printed in cell
Procedure: (§1) Clay Solution Preparation
To make 100 mL of a clay solution, measure 1 g of Cream Bentonite Clay or Weatherford Bentonite Clay material. Add 99 g of distilled water and shake bottle until all the clay is dissolved.
Measure 100 ml of clay solution in a graduated cylinder. Shake 10 times. Record separation time and clay precipitation.
Measure 100 mL of clay solution in a graduated cylinder and add 0.5 mL of the desired clay stabilizer. Shake 10 times. Record separation time and clay coagulation. Record clay deposition, swelling and water release.

[2] = Linear Swell after 23 hours; 6000 ppm; Bentonite pellet
Procedure: The Linear Swell Meter was OFITE 115V Dynamic Linear Swell Meter Model #150-80. 14 g of Bentonite was added to a pelletizercompactor and 10,000 psi pressure was applied for 30 minutes. The pellet was removed from the compactor. Ensure all components of the Linear Swell Meter are clean: transfer stand, cap for wafer tube, bottom plate, magnetic stir bar, Teflon washer, and cup. With both the screens in the linear swell meter cell, the swell meter was zeroed out by clicking on the specific cell(s) to be zeroed out and clicked “apply”. One of the screens from the cell was removed and the pellet was added on top of the other screen. The other screen was put on top of the pellet. The transfer stand was gently placed on top of the pellet. The cell was placed on the magnetic stir plate underneath the linear variable differential transformer (LVDT) to make sure that the spindle was directly centered on top of the transfer stand. The fluid to be tested was poured through the hole on the cap for the wafer tube, the box was checked to start the cell and “apply” was clicked. Doing this will start the test for the specific cell.

[3] = test system: Fathead Minnow (pimephales promelas); assay: Acute toxicity minnow survival test; type: in vivo; conditions: for LC50: acute toxicity survival, Examples 4 and 5 range-finding and definitive test, TMAC and Example 3 range-finding test only; for toxicity to minnows compared with TMAC / prior art: comparison in words, data of Table II
Procedure: As a consequence, the “definitive” test gave a more precise LC50 value. LC50 was determined using a log-normal transformation coupled with linear regression between the bracketing no observed effect concentration (NOEC) and lowest observed effect concentration (LOEC). Both the range finding and definitive tests were run on Example 4 and Example 5. Only the ranging finding test was run for TMAC and Example 3.

[4] = Water release clay stabilization test; parameters: unit not given here; conditions: 100 mL of 1 wt. % Wyoming Bentonite clay solution
Procedure: as §1
To make 1 wt. % clay solution, 23 g of Wyoming Bentonite Clay and 2277 g of distilled water were added to a bottle and shaken until all the clay was dissolved. […]
Measure 100 mL of clay solution into 6 graduated cylinders. […] The addition of the clay stabilizers at 0.1 mL, 0.2 mL, 0.4 mL, 0.6 mL, 0.8 mL, and 1.0 mL in 100 mL of a clay solution corresponds to 1, 2, 4, 6, 8 and 10 Gallons per Thousand (or gpt). Invert the cylinders 20 times. Start timer and record separation time and clay coagulation. Record clay deposition, swelling and water release.

[5] = Capillary suction timer clay stabilization test; conditions: 2 g Bentonite in 100 g solution
Procedure: A rock sample was placed in a Gyral Grinder and grinding of the rock sample was begun. The rock sample was ground for 1 hour using a timer. The ground rock sample was placed into a 200-mesh sieve. The aggregate that passed through the sieve was placed in a pan for testing and placed to the side.
Using a 100 mL volumetric flask, a solution was prepared that will be used to mix with the rock sample. At least one solution should be prepared as the sample with straight tap water will be used as a reference blank. 100 g of solution was added to a 250 mL beaker equipped with a magnetic stir bar. A specified amount of each shale inhibitor was added to the beaker. The beaker was placed on stir plate and stirring was begun at a speed at which a vortex reaches the bottom of the beaker. 2 g of the untreated Bentonite sample was added and a timer was set for 5 minutes. After 5 minutes, the stir plate was turned off, the solution was poured into a 100 mL graduated cylinder, and a timer was set for 15 minutes. After 15 minutes, the mixture was poured back into the beaker, the beaker was placed on the magnetic stir plate and stirring was restarted on the plate. Wait until the vortex returned and the clay had become dispersed.
A Venture Innovations capillary suction timer (CST) from Venture Chemicals, Inc. in Lafayette, La. was used in the tests. Before each test, the test head, filter paper, and stainless steel funnel were cleaned and dried. Make sure the cable from the test head was plugged into the control box and the reading on the control box display was reset to zero. A piece of 7×9 cm CST filter paper from Venture Innovations Inc. (part no. IFP-9053) was placed on the test head with the stainless steel probes facing down. The stainless steel funnel was fitted into the test head.
Using a 5-mL syringe, 5-mL of sample was withdrawn from the vortex. Consecutive samples were removed from the same position in the vortex, where the previous sample was taken. A 5 mL sample was charged into the stainless steel funnel. The 5 mL sample charge was repeated twice more. Instrument started automatically when a beep sounds from the control box. When this beep sounded, the timer started. […]

Row | SMILES | Final Water (mL) [1] | % Swell [2] [%] | LC50 [3] [µg/mL] | toxicity to minnows compared with TMAC / prior art [3] | WR (water release at 60 minutes) 2.0 gpt [4] | WR (water release at 60 minutes) 4.0 gpt [4] | WR (water release at 60 minutes) 6.0 gpt [4] | WR (water release at 60 minutes) 8.0 gpt [4] | WR (water release at 60 minutes) 10.0 gpt [4] | CST Time ([5]; CST concentration 4000 ppm) [s] | CST Time ([5]; CST concentration 5000 ppm) [s] | CST Time ([5]; CST concentration 6000 ppm) [s]
1 | C[N+](C)(C)CCO.[Cl-] [Choline Chloride, reference compound] | 27 mL/60 minutes (Top) | 88.9 |  |  |  |  |  |  |  |  |  | 
2 | OCC[N+](CCO)(CCO)Cc1ccccc1.[Cl-] [Example 4] |  |  | 3160 | much less toxic than TMAC | 27 | 33 | 34 | 33 | 32 | 18 |  | 
3 | CCOS(=O)(=O)[O-].CC[N+](CCO)(CCO)CCO [Example 5] | 20 mL/60 minutes (Middle) |  | 6030 | much less toxic than TMAC | 2 | 9 | 22 | 26 | 31 | 90 | 68 | 92
4 | C[N+](C)(C)C.[Cl-] [tetramethylammonium chloride, reference compound] |  |  | 737 |  |  |  |  |  |  |  |  | 
